Experimental data published in US11369590B2, “PSMA binding ligand-linker conjugates and methods for using” (Purdue Research Foundation, priority 2007, dated 2022).
pIC50, pKi: −log10 of the molar value. Where two headings read alike, the source gives them in different places. *1 amine or outer side, *2 acyl side, *3 side chain or, on linkers, in order; H or OH if unused. Where a SMILES comes first, the peptide text is derived from it. Side-chain parts run from the residue outwards. [ ]: non-standard residue; d: D form. γGlu = O=C(O)[C@H](CCC(=O)[*:2])N[*:1]; Dap = NC[C@H](N)C(=O)O; Aoc = NCCCCCCCC(=O)O; CO = O=C([*:1])[*:2]

Experiments:
[1] = target: PSMA (Homo sapiens, UniProt Q04609); conditions: PSMA ligand of formula drawing 51, R^1 as drawn; cited from earlier work
[2] = system: LNCaP cells; conditions: 1 hour
Method: Quantification of PSMA Molecules on LNCaP Cells. […] Cells were rinsed three times with 1.0 mL of RPMI. Cells were lysed with tris-buffer, transferred to individual gamma scintigraphy vials, and radioactivity was counted. The plot of cell bound radioactivity verses concentration of radiolabeled compound was used to calculate number of PSMA/LNCaP cell. The radioactivity of a 30 nM sample of SK28-99 mTc (20 uL) was counted. At 4° C. (to prevent endocytosis of PSMA), the number of moles in the 30 nM sample=30 nM×20 uL=(30×10-9 mol/L)×(20×10-6 L)=6×10-13 mol.

[3] = system: LNCaP tumors; assay: In vivo imaging of tumors in mouse using PSMA-99mTc compounds; conditions: mice with LNCaP tumors, 4 hours after intraperitoneal injection
Method: In Vivo Imaging of Tumors in Mouse Using PSMA-99 mTc. When tumors reached a volume of between 500-600 mm3, 99 mTc-labeled compounds (e.g. SK28-99 mTc, SK60-99 mTc, etc) prepared as described, were administered through intraperitoneal injection […]. Four hours later, animals were euthanized and blood was taken by cardio punch and transferred to individual gamma scintigraphy vials per each animal. The imaging experiments were carried out using either a Kodak or gamma scintigraphic camera imager (FIGS. 6A, 6B, 6C, 7A, 7B and 7C). [Note: PMPA was injected 30 minutes before injecting SK28 -99 mTc.
FIGS. 6A, 6B, and 6C show images of mice with human LNCaP tumors using SK28-99 mTc (radiolabeled 14 Atom spacer).

[4] = system: LNCaP tumors; assay: In vivo imaging of LNCaP tumors in mouse using DUPA-99mTc
Method: (§1) In Vivo Imaging of Tumors in Mouse Using dupa-99 mTc. To further establish the specificity of our DUPA conjugates for prostate cancer cells, DUPA-99 mTc was injected intraperitoneally (i.p.) into athymic nude mice bearing LNCaP tumors on their shoulders. After 4 h to allow for clearance of unbound conjugate, the distribution of the retained DUPA-99 mTc was imaged by gamma scintigraphy. […] In vivo specificity of the PSMA-targeted imaging agent was further tested by prior administration of excess PMPA to block all PSMA sites before DUPA-99 mTc administration. […] To further document this specificity, the radiotracer was also administered to two PSMA negative mouse xenograft models [A549 (a human lung cancer cell line) and KB (a human nasopharyngeal cancer cell line)], and again whole body images were taken. […] These studies thus confirm that very little DUPA-99 mTc binding occurs to sites unrelated to PSMA in vivo.
(§2) Overlay of whole-body radioimages on white light images of mice bearing LNCaP tumors that were treated with DUPA-99 mTc in the absence 7D(a, c) or presence 7D(b, d) of 100-fold molar excess PMPA. Overlay of radioimages on white light images were also obtained of mice bearing an A549 tumor 7D(e) or a KB tumor 7D(f) that were similarly treated with DUPA-99 mTc. Except in images 7D(a) and 7D(b), kidneys were shielded with lead pads. […]

[5] = system: A549 tumors; conditions: mouse, in vivo
Method: as §1, §2

[6] = system: KB tumors; conditions: mouse, in vivo
Method: as §1, §2

[7] = system: LNCaP cells; assay: [3H]-Thymidine incorporation assay, toxicity to LNCaP cells in culture; type: cell-based, human; conditions: LNCaP cells pulsed 2 h, additional 66 h in fresh medium
Method: Evaluation of a PSMA-Targeted Therapeutic Agent in Vitro. Analysis of SK71 (FIG. 12A), SK77 (FIG. 12B), SK37 (FIG. 12C), and SK45 (FIG. 12D), toxicity to LNCaP cells in culture. LNCaP cells were pulsed for 2 h with increasing concentrations of SK71 or SK77 in the presence (▴) or absence (▪) of 100-fold molar excess PMPA. After 2× washes, cells were incubated an additional 66 h in fresh medium at 37° C. Cell viability was then analyzed using the [3H]-thymidine incorporation assay, as described herein. Data were obtained in a single experiment and error bars represent s.d. (n=3 wells per concentration).

[8] = Single dose toxicity in live mice; conditions: mouse, in vivo, single dosing
Description: Single dose toxicity in live mice. Administration of SK71 was in a single dose as indicated. […] (See FIG. 9A)

[9] = Multiple dose toxicity in live mice; type: in vivo, mouse
Method: Multiple dose toxicity in live mice. SK71 was administered in 5 doses on alternate days (M, W, F, M, W). […] (See FIG. 9B)

[10] = system: LNCaP tumors; assay: Efficacy study compared to control group and competition group; type: in vivo, mouse
Method: Efficacy study compared to control group and competition group. Animals were treated with (a) the conjugate SK71 administered in 5 doses on alternate days (M, W, F, M, W) at […], and compared to (b) vehicle treated animals (FIG. 10B), and to (c) animals treated with the conjugate in conjunction with PMPA. […] The competition experiments (See FIG. 10C) indicate that the successful treatment of the implanted tumor is related to selective or specific targeting of PSMA mediated delivery.

Sequence of PSMA (Q04609 whole entry, species assumed): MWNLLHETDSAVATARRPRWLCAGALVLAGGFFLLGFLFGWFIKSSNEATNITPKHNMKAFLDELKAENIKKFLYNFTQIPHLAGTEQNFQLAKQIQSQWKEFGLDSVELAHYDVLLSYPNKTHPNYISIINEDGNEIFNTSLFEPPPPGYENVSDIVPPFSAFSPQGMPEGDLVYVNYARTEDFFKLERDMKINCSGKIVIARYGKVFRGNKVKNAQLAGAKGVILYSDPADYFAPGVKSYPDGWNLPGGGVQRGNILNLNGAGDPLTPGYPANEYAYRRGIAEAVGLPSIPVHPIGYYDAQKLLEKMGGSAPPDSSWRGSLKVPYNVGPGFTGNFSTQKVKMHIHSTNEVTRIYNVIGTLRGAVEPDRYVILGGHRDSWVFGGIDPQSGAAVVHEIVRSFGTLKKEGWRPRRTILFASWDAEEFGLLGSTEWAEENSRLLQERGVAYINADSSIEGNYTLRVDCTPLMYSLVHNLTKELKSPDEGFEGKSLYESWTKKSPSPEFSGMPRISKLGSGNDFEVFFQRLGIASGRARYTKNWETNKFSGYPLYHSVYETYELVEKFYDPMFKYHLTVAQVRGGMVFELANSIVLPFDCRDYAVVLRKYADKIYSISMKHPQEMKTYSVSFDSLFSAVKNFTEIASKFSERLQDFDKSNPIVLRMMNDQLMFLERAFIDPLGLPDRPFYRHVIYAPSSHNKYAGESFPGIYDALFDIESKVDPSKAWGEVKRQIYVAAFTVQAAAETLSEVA

## O=C(O)CCC(NC(=O)NC(CCC(=O)O)C(=O)O)C(=O)O (centres unmarked)
[1]
  pKi: 8.10

## O=C(O)CCC(NC(=O)NC(CCC(=O)O)c1nnn[nH]1)C(=O)O (centres unmarked)
[1]
  pKi: 6.47

## N[C@@H](CNC(=O)[C@H](Cc1ccccc1)NC(=O)[C@H](Cc1ccccc1)NC(=O)CCCCCCCNC(=O)CC[C@H](NC(=O)N[C@@H](CCC(=O)O)C(=O)O)C(=O)O)C(=O)N[C@@H](CC(=O)O)C(=O)N[C@@H](CS)C(=O)O [SK28-^99mTc, metal not drawn] (H-[Dap]([Phe-Phe-Aoc-γGlu-CO-Glu])-Asp-Cys-OH)
[2]; 4° C.
  cell bound radioactivity at the saturation point: 12 000 cpm
[2]; 37° C.
  cell bound radioactivity at the saturation point: 33,000 cpm
[3]
  distribution of radioactivity (imaging): distribution was limited to kidneys
[4]; LNCaP tumors, prior administration of 100-fold molar excess PMPA
  tumor uptake after PMPA block: no DUPA-99 mTc uptake
[4]; nude mice bearing LNCaP tumors, 4 h after i.p. injection, without PMPA
  distribution of retained radiotracer (gamma scintigraphy): accumulated mainly in the PSMA positive LNCaP tumor
[5]
  radioactivity in tumor: no radioactivity was observed
[6]
  radioactivity in tumor: no radioactivity was observed

## CC[C@@]1(OC(=O)OCCSSC[C@H](NC(=O)[C@H](CC(=O)O)NC(=O)[C@@H](N)CNC(=O)[C@H](Cc2ccccc2)NC(=O)[C@H](Cc2ccccc2)NC(=O)CCCCCCCNC(=O)CC[C@H](NC(=O)N[C@@H](CCC(=O)O)C(=O)O)C(=O)O)C(=O)O)C(=O)OCc2c1cc1n(c2=O)Cc2cc3ccccc3nc2-1 [SK45]
[7]
  pIC50: ~7.54

## CCCC(=O)OCN(C(=O)[C@@H](NC(=O)[C@H]1CCCCN1C)C(C)CC)[C@H](C[C@@H](OC(C)=O)c1nc(C(=O)N[C@@H](Cc2ccc(O)cc2)C[C@H](C)C(=O)NNC(=O)OCCSSC[C@H](NC(=O)[C@H](Cc2ccccc2)NC(=O)[C@H](CC(=O)O)NC(=O)CC[C@H](NC(=O)CC[C@H](NC(=O)N[C@@H](CCC(=O)O)C(=O)O)C(=O)O)C(=O)O)C(=O)O)cs1)C(C)C (some centres unmarked) [SK71]
[8]
  MTD: ~4.5 µmol/kg
[9]; LNCaP tumors, 2 and 4 μmol/kg groups, after 18 days of treatment
  visible tumors: no mice in the two treated groups had visible tumors
[9]; mouse, in vivo, multiple dosing, 5 doses on alternate days, mice
  MTD: 2 µmol/kg
[7]
  pIC50: ~8.70
[10]; 1 μmol/kg, 5 doses on alternate days, starting tumor size approximately 250 mm3
  tumor size during treatment: successive decrease in tumor size
[10]; 1 μmol/kg, at the cessation of dosing
  tumor volume after dosing: tumor volumes rebounded
[10]; at least 2 μmol/kg, during the testing period
  tumor response at higher dose: complete disappearance of the tumor
